The values that follow come from patent US6372795B1, “Cosmetic compositions containing substituted amide derivatives” (Unilever Home and Personal Care USA, A Division of Conopco, …, priority 2000, dated 2002).

In the assay the test system is human sebocytes. The assay is described as follows: Sebum suppression in secondary cultures of human sebocytes (14C-acetate label remaining in sebocytes). The format is cell-based. The note with it: for % of Control / activity at 1 µM / activity at 10 µM: human sebocytes; for activity at 1 µM / activity at 10 µM: Homo sapiens, read-out: % of Control; for sebum suppressive activity in the presence of a retinoid (combined with retinol): compared with compound alone, summary in words. As to the method:
Compounds A through G were tested for their potential to suppress sebum expression, alone or in the presence of a retinoid.
Secondary cultures of human sebocytes obtained from an adult […] were grown in 48-well tissue culture plates (Costar Corp.; Cambridge, Ma.) or 96-well tissue culture plates (Packard Co.; Meriden, Conn.) until confluent. Sebocyte growth medium consisted of Clonetics Keratinocyte Basal Medium (KBM) supplemented with 14 μg/ml bovine pituitary extract, 0.4 μg/ml hydrocortisone, 5 μg/ml insulin, 10 ng/ml epidermal growth factor, 1.2×10^-10 M cholera toxin, 100 units/ml penicillin, and 100 μg/ml streptomycin. All cultures were incubated at 37° C. in the presence of 7.5% CO2. Medium was changed three times per week.
On the day of experimentation, the growth medium was removed and the sebocytes washed three times with sterile Dulbecco's Modified Eagle Medium (DMEM; phenol red free). Fresh DMEM was added to each sample (duplicates, triplicates, or quadruplicates depending on the experiment) with 5 microliter of test agent solubilized in ethanol either alone or in the presence of one or 10 micromolar of retinol. Controls consisted of addition of ethanol alone, retinol alone, or phenol red, which has estrogen-like activity and is included as a positive control.
Each plate was returned to the incubator for 20 hours followed by the addition of 14C-acetate buffer (5 mM final concentration, 56 mCi/mmol specific activity). Sebocytes were returned to the incubator for four hours afterwhich each culture was rinsed three times with phosphate buffered saline to remove unbound label. Radioactive label remaining in the sebocytes was harvested and counted using a Beckman scintillation counter.

The mark [1] stands for this setting: 10 μM test compound + 1 μM Retinol.
The mark [2] stands for this setting: 10 μM test compound + 10 μM Retinol.
The mark [3] stands for this setting: 1 μM test compound + 1 μM Retinol.
The mark [4] stands for this setting: 1 μM test compound + 10 μM Retinol.
Setting [5] is: 1 μM test compound alone, 20 h + 4 h 14C-acetate.

Several values for one entry are separate records, joined by “and”; a condition that tells them apart may be missing. Identical values can stand only once. Like-named read-outs stand apart in the source and are kept apart here.

With `CCOC(=O)c1ccc(NC(=O)Nc2ccc(O)cc2)cc1` [Compound F], the “sebum suppressive activity in the presence of a retinoid (combined with retinol)” value was “improved sebum suppressive activity”. Moreover, the “% of Control” value under setting [1] was 53.1% and 73.4%. Further, the “% of Control” value under setting [2] is 63.4% and 40.4%. The “% of Control” value (10 μM test compound alone, 10 µM) is recorded as 72.0%. In addition, the activity at 1 µM under setting [3] is 71%. Further, under setting [4], the activity at 1 µM came to 76.2%. Also, the activity at 1 µM under setting [5] was determined as 84%. The activity at 10 µM (10 μM test compound alone) was 57.4%.
Take `CC1=C(/C=C/C(C)=C/C=C/C(C)=C/CO)C(C)(C)CCC1` [Retinol, retinol, reference compound]: the “% of Control” value (1 μM Retinol alone) worked out at 99.9%; the “% of Control” value (10 μM Retinol alone) was 103.7% and 100.9% and 100.1%. For the same compound, the sebum suppressive activity entry (substance alone, summary in words of Tables 1-12) is “inactive”.
With `O=C(Nc1ccc(O)cc1)Nc1cccc(C(F)(F)F)c1` [Compound E], the “sebum suppressive activity in the presence of a retinoid (combined with retinol)” value is recorded as “improved sebum suppressive activity”.
Consider `CCOC(=O)c1ccc(NC(=O)Nc2cccc(C(C)O)c2)cc1` (centres unmarked) [Compound D], for which the “sebum suppressive activity in the presence of a retinoid (combined with retinol)” value was “improved sebum suppressive activity”. Further, the activity at 1 µM under setting [3] stood at 82.8%. For the same compound, the activity at 1 µM under setting [4] turned out to be 78%. Besides, the activity at 1 µM under setting [5] is 82.4%. Moreover, under setting [1], the activity at 10 µM was 66.8%. For the same compound, the activity at 10 µM under setting [2] is 25%. Further, the activity at 10 µM (10 μM test compound alone) stood at 58.5%.
Take `Cc1cccc(N2CCN(C(=O)CC3C=CC(CC(=O)N4CCN(c5cccc(C)c5)C(C)C4)C3)CC2C)c1` (centres unmarked) [G]: the “sebum suppressive activity in the presence of a retinoid (combined with retinol)” value was “improved sebum suppressive activity”.
